How the values were obtained:
Type in all cases: functional
Pseudomonas aeruginosa [1] = assay: Antimicrobial activity against Pseudomonas aeruginosa 1564-05
Pseudomonas aeruginosa [2] = assay: Antimicrobial activity against Pseudomonas aeruginosa 1951-00
Pseudomonas aeruginosa [3] = assay: Antimicrobial activity against Pseudomonas aeruginosa 1767-00
Pseudomonas aeruginosa [4] = assay: Antimicrobial activity against Pseudomonas aeruginosa 1611-09
Pseudomonas aeruginosa [5] = assay: Antimicrobial activity against Pseudomonas aeruginosa PA-4990
Pseudomonas aeruginosa [6] = assay: Antimicrobial activity against Pseudomonas aeruginosa 1570-05
Pseudomonas aeruginosa [7] = assay: Antimicrobial activity against Pseudomonas aeruginosa 1613-09
Pseudomonas aeruginosa [8] = assay: Antimicrobial activity against Pseudomonas aeruginosa 1619-08
Pseudomonas aeruginosa [9] = assay: Antimicrobial activity against Pseudomonas aeruginosa PA-4993
Pseudomonas aeruginosa [10] = assay: Antimicrobial activity against Pseudomonas aeruginosa PA-75
Pseudomonas aeruginosa [11] = assay: Antimicrobial activity against Pseudomonas aeruginosa 1568-05
Pseudomonas aeruginosa [12] = assay: Antimicrobial activity against Pseudomonas aeruginosa 1954-00
Pseudomonas aeruginosa [13] = assay: Antimicrobial activity against Pseudomonas aeruginosa 1513-08
Pseudomonas aeruginosa [14] = assay: Antimicrobial activity against Pseudomonas aeruginosa 1563-00
Pseudomonas aeruginosa [15] = assay: Antimicrobial activity against Pseudomonas aeruginosa PA-4624
Pseudomonas aeruginosa [16] = assay: Antimicrobial activity against Pseudomonas aeruginosa 1953-00
Pseudomonas aeruginosa [17] = assay: Antimicrobial activity against Pseudomonas aeruginosa PA-4991
Pseudomonas aeruginosa [18] = assay: Antimicrobial activity against Pseudomonas aeruginosa 1567-05
Pseudomonas aeruginosa [19] = assay: Antimicrobial activity against Pseudomonas aeruginosa 1955-00
Pseudomonas aeruginosa [20] = assay: Antimicrobial activity against Pseudomonas aeruginosa PA-1757
Pseudomonas aeruginosa [21] = assay: Antimicrobial activity against Pseudomonas aeruginosa PA-4999
Pseudomonas aeruginosa [22] = assay: Antimicrobial activity against Pseudomonas aeruginosa 1753-00
Pseudomonas aeruginosa [23] = assay: Antimicrobial activity against Pseudomonas aeruginosa 1761-00
Pseudomonas aeruginosa [24] = assay: Antimicrobial activity against Pseudomonas aeruginosa 1565-05
Pseudomonas aeruginosa [25] = assay: Antimicrobial activity against Pseudomonas aeruginosa 1509-08
Pseudomonas aeruginosa [26] = assay: Antimicrobial activity against Pseudomonas aeruginosa 1614-09
Pseudomonas aeruginosa [27] = assay: Antimicrobial activity against Pseudomonas aeruginosa 1956-00
Pseudomonas aeruginosa [28] = assay: Antimicrobial activity against Pseudomonas aeruginosa 1526-08
Pseudomonas aeruginosa [29] = assay: Antimicrobial activity against Pseudomonas aeruginosa 1512-08
Pseudomonas aeruginosa [30] = assay: Antimicrobial activity against Pseudomonas aeruginosa 1569-05
Pseudomonas aeruginosa [31] = assay: Antimicrobial activity against Pseudomonas aeruginosa 1566-05
Pseudomonas aeruginosa [32] = assay: Antimicrobial activity against Pseudomonas aeruginosa 1523-08
Pseudomonas aeruginosa [33] = assay: Antimicrobial activity against Pseudomonas aeruginosa 1514-08
Pseudomonas aeruginosa [34] = assay: Antimicrobial activity against Pseudomonas aeruginosa 1562-05
Pseudomonas aeruginosa [35] = assay: Antimicrobial activity against Pseudomonas aeruginosa 1957-00
Pseudomonas aeruginosa [36] = assay: Antimicrobial activity against Pseudomonas aeruginosa 1752-00
Pseudomonas aeruginosa [37] = assay: Antimicrobial activity against Pseudomonas aeruginosa 1615-09
Pseudomonas aeruginosa [38] = assay: Antimicrobial activity against Pseudomonas aeruginosa PA-4995
Pseudomonas aeruginosa [39] = assay: Antimicrobial activity against Pseudomonas aeruginosa PA-4997
Pseudomonas aeruginosa [40] = assay: Antimicrobial activity against Pseudomonas aeruginosa 1764-00
Pseudomonas aeruginosa [41] = assay: Antimicrobial activity against Pseudomonas aeruginosa 1766-00
Pseudomonas aeruginosa [42] = assay: Antimicrobial activity against Pseudomonas aeruginosa 1765-00
Pseudomonas aeruginosa [43] = assay: Antimicrobial activity against Pseudomonas aeruginosa 1521-08
Pseudomonas aeruginosa [44] = assay: Antimicrobial activity against Pseudomonas aeruginosa 1527-08
Pseudomonas aeruginosa [45] = assay: Antimicrobial activity against Pseudomonas aeruginosa 1612-09
Pseudomonas aeruginosa [46] = assay: Antimicrobial activity against Pseudomonas aeruginosa 1515-08
Pseudomonas aeruginosa [47] = assay: Antimicrobial activity against Pseudomonas aeruginosa 1510-08
Pseudomonas aeruginosa [48] = assay: Antimicrobial activity against Pseudomonas aeruginosa 1768-00
Pseudomonas aeruginosa [49] = assay: Antimicrobial activity against Pseudomonas aeruginosa 1952-00
Pseudomonas aeruginosa [50] = assay: Antimicrobial activity against Pseudomonas aeruginosa 1561-05
Pseudomonas aeruginosa [51] = assay: Antimicrobial activity against Pseudomonas aeruginosa 1760-00

Measured: MIC90

C[C@H]1[C@H](NC(=O)/C(=N\OC(C)(C)C(=O)O)c2csc(N)n2)C(=O)N1C(=O)NS(=O)(=O)n1nc(-c2cc(=O)c(O)c[nH]2)n(C)c1=O
0.125 µg/mL: Pseudomonas aeruginosa [1] | Pseudomonas aeruginosa [4] | Pseudomonas aeruginosa [6] | Pseudomonas aeruginosa [7] | Pseudomonas aeruginosa [9] | Pseudomonas aeruginosa [27] | Pseudomonas aeruginosa [35] | Pseudomonas aeruginosa [38] | Pseudomonas aeruginosa [48]
8 µg/mL: Pseudomonas aeruginosa [20] | Pseudomonas aeruginosa [47]
4 µg/mL: Pseudomonas aeruginosa [25]
1 µg/mL: Pseudomonas aeruginosa [13] | Pseudomonas aeruginosa [15] | Pseudomonas aeruginosa [23] | Pseudomonas aeruginosa [33] | Pseudomonas aeruginosa [42] | Pseudomonas aeruginosa [43] | Pseudomonas aeruginosa [45] | Pseudomonas aeruginosa [50]
0.06 µg/mL: Pseudomonas aeruginosa [12]
0.25 µg/mL: Pseudomonas aeruginosa [3] | Pseudomonas aeruginosa [14] | Pseudomonas aeruginosa [16] | Pseudomonas aeruginosa [18] | Pseudomonas aeruginosa [19] | Pseudomonas aeruginosa [24] | Pseudomonas aeruginosa [26] | Pseudomonas aeruginosa [28] | Pseudomonas aeruginosa [31] | Pseudomonas aeruginosa [34] | Pseudomonas aeruginosa [37] | Pseudomonas aeruginosa [40] | Pseudomonas aeruginosa [49]
0.03 µg/mL: Pseudomonas aeruginosa [8]
0.5 µg/mL: all other assays above

C[C@@H](O)[C@H]1C(=O)N2C(C(=O)O)=C(S[C@@H]3CN[C@H](C(=O)N(C)C)C3)[C@H](C)[C@H]12 [MEROPENEM]
> 64 µg/mL: Pseudomonas aeruginosa [9] | Pseudomonas aeruginosa [25] | Pseudomonas aeruginosa [28] | Pseudomonas aeruginosa [29] | Pseudomonas aeruginosa [33] | Pseudomonas aeruginosa [43] | Pseudomonas aeruginosa [47]
4 µg/mL: Pseudomonas aeruginosa [4] | Pseudomonas aeruginosa [8] | Pseudomonas aeruginosa [20] | Pseudomonas aeruginosa [26] | Pseudomonas aeruginosa [34] | Pseudomonas aeruginosa [51]
1 µg/mL: Pseudomonas aeruginosa [19]
32 µg/mL: Pseudomonas aeruginosa [5] | Pseudomonas aeruginosa [13] | Pseudomonas aeruginosa [46]
64 µg/mL: Pseudomonas aeruginosa [32] | Pseudomonas aeruginosa [39]
0.5 µg/mL: Pseudomonas aeruginosa [3] | Pseudomonas aeruginosa [10] | Pseudomonas aeruginosa [11] | Pseudomonas aeruginosa [18] | Pseudomonas aeruginosa [24] | Pseudomonas aeruginosa [27] | Pseudomonas aeruginosa [31] | Pseudomonas aeruginosa [48]
16 µg/mL: Pseudomonas aeruginosa [38] | Pseudomonas aeruginosa [45]
0.06 µg/mL: Pseudomonas aeruginosa [2]
0.125 µg/mL: Pseudomonas aeruginosa [22] | Pseudomonas aeruginosa [35] | Pseudomonas aeruginosa [36]
8 µg/mL: Pseudomonas aeruginosa [17] | Pseudomonas aeruginosa [21] | Pseudomonas aeruginosa [44]
0.25 µg/mL: Pseudomonas aeruginosa [6] | Pseudomonas aeruginosa [7] | Pseudomonas aeruginosa [12] | Pseudomonas aeruginosa [15] | Pseudomonas aeruginosa [30]
2 µg/mL: all other assays above
